By ED50 is commonly meant the dose at which the effect has come halfway, by size or by number of responders. By MIC is commonly meant the smallest concentration in the dilution series that meets the test's criterion for growth inhibition. A higher MIC goes with weaker potency.

The record followed here is patent publication US5026832A, “9-dihydro-9-O-alkyldesmycosin derivatives” (Toyo Jozo Co., Ltd., priority 1988, dated 1991).

The subject of assay [1] is Staphylococcus pyogenes S-23. The assay can be described thus: Infectious disease curing effect by oral administration in infected mice. Type of assay: in vivo, ICR male mice. The conditions noted are these: Staphylococcus aureus, S23, 120 h; oral, 1 hour after abdominal inoculation of Staphylococcus pyogenes S-23, inspected for 5 days, Van der Waerden method; read-out: ED50. How it is done:
A pre-incubated test microorganism, Staphylococcus pyogenes S-23, was suspended in a 5% mucin solution and inoculated into the ICR male mice (8 mice per group) abdomen in an amount of 2×10^2. After 1 hour, Compounds (I) of the present invention dissolved or suspended in a phosphate buffer were orally administered to the mice. The mice were inspected for 5 days to determine ED50 (mg/kg) by the Van der Waerden method.

The test system of assay [2] is Staphylococcus aureus Smith. The assay can be described thus: Antimicrobial activity (minimum inhibitory concentration). The assay is classed as cell-based. Particulars: about 10^6 /ml. On the procedure: (§1) Minimum inhibitory concentrations (MIC, μg/ml) of various compounds of formula (I) against various microorganisms (about 10^6 /ml) were measured.
The subject of assay [3] is Staphylococcus aureus FDA 209P JC-1. Described as above. Type of assay: cell-based. Particulars: FDA209P; Staphylococcus aureus FDA 209P JC-1, about 10^6 /ml. On the procedure:
as §1

In assay [4] the test system is Staphylococcus pyogenes N.Y.5. The description is as above. The assay is classed as cell-based. Particulars: Staphylococcus pyogenes N.Y.5, about 10^6 /ml. How it is done:
as §1

The subject of assay [5] is Staphylococcus pyogenes 1022. The description is as above. The assay is classed as cell-based. Particulars: Staphylococcus pyogenes 1022, about 10^6 /ml. On the procedure: as §1
The subject of assay [6] is Staphylococcus aureus MS 353 C36. The assay is described as above. Type of assay: cell-based. Particulars: MS353C36; Staphylococcus aureus MS 353 C36, about 10^6 /ml. How it is done: as §1
Assay [7] concerns Staphylococcus aureus MS 353. The assay is described as above. The assay is classed as cell-based. The conditions noted are these: MS353; Staphylococcus aureus MS 353, about 10^6 /ml. On the procedure:
as §1

In assay [8] the test system is Staphylococcus epidermidis sp-al-1. The description is as above. The assay is classed as cell-based. The conditions noted are these: SPAL1; Staphylococcus epidermidis sp-al-1, about 10^6 /ml. On the procedure:
as §1

Assay [9] relates to Staphylococcus pyogenes S-23. The assay is described as above. The assay is classed as cell-based. Particulars: Staphylococcus aureus, S23; Staphylococcus pyogenes S-23, about 10^6 /ml. How it is done: as §1

Each structure is given as a SMILES string. ≈ marks a conversion by molar mass, not a printed value. Bounds are passed on as bounds.

In the case of `CCC1OC(=O)CC(O)C(C)C(OC2OC(C)CC(N(C)C)C2O)C(CC=O)CC(C)C(OC)C=CC(C)=CC1CN(C)C` (centres unmarked) [Compound 7, 9-dihydro-9-O-methyl-23-demycinosyloxy-23-dimethylamino-4'-deoxydesmycosin], the ED50 in assay [1] fell in the range of 100 to 200 mg/kg. Besides, the MIC in assay [2] is 0.78 µg/mL (≈ 1.25 µM); in [3], 0.2 µg/mL (≈ 0.32 µM); in assay [4], 0.2 µg/mL (≈ 0.32 µM); in assay [5], more than 100 µg/mL; in assay [6], 0.2 µg/mL (≈ 0.32 µM); in assay [7] it was 0.2 µg/mL (≈ 0.32 µM). Moreover, the MIC in assay [8] and in assay [9] was 0.2 µg/mL (≈ 0.32 µM) throughout.

Take `CCC1OC(=O)CC(O)C(C)C(OC2OC(C)CC(N(C)C)C2O)C(CC=O)CC(C)C(OC)C=CC(C)=CC1COC1OC(C)C(O)C(OC)C1OC` (centres unmarked) [Compound 6, 9-dihydro-9-O-methyl-4'-deoxydesmycosin]: the 50% effective dose (ED50) in [1] stood at 64.8 mg/kg. The minimal inhibitory concentration (MIC) is 0.39 µg/mL (≈ 0.505 µM) in [2]; 0.1 µg/mL (≈ 0.13 µM) in assay [3]; not above 0.05 µg/mL in assay [4]; 0.2 µg/mL (≈ 0.259 µM) in assay [6]; 0.2 µg/mL (≈ 0.259 µM) in assay [7]; 0.1 µg/mL (≈ 0.13 µM) in assay [8]. In addition, the MIC in assay [9] is not above 0.05 µg/mL.

On to `CCOC1C=CC(C)=CC(COC2OC(C)C(O)C(OC)C2OC)C(CC)OC(=O)CC(OC(C)=O)C(C)C(OC2OC(C)C(O)C(N(C)C)C2O)C(CC=O)CC1C` (centres unmarked) [Compound 8, 9-dihydro-9-O-ethyl-3-O-acetyldesmycosin], for which the ED50 in assay [1] was 50 mg/kg. The minimal inhibitory concentration (MIC) was 0.78 µg/mL (≈ 0.924 µM) in assay [2]; 0.2 µg/mL (≈ 0.237 µM) in assay [3]; 0.1 µg/mL (≈ 0.118 µM) in [4]; more than 100 µg/mL in [5]; 0.39 µg/mL (≈ 0.462 µM) in assay [6]; 0.39 µg/mL (≈ 0.462 µM) in assay [7]. Moreover, the minimal inhibitory concentration (MIC) in assay [8] stood at 0.39 µg/mL (≈ 0.462 µM); in [9] it was 0.1 µg/mL (≈ 0.118 µM).

For `CCC(=O)OC1CC(=O)OC(CC)C(COC2OC(C)C(O)C(OC)C2OC)C=C(C)C=CC(OC)C(C)CC(CC=O)C(OC2OC(C)C(O)C(N(C)C)C2O)C1C` (centres unmarked) [Compound 5, 9-dihydro-9-O-methyl-3-O-propionyldesmycosin], the 50% effective dose (ED50) in assay [1] came to 84 mg/kg. Also, the MIC amounted to 0.39 µg/mL (≈ 0.462 µM) in assay [2]; 0.1 µg/mL (≈ 0.118 µM) in assay [3]; 0.05 µg/mL (≈ 0.0592 µM) in [4]; 50 µg/mL (≈ 59.2 µM) in assay [5]; 0.2 µg/mL (≈ 0.237 µM) in assay [6]; 0.2 µg/mL (≈ 0.237 µM) in assay [7]. Besides, the minimal inhibitory concentration (MIC) in [8] was 0.2 µg/mL (≈ 0.237 µM); in [9], 0.1 µg/mL (≈ 0.118 µM).
